Results reported in article PMC9598656, “In Vitro Activity of Robenidine Analogues NCL259 and NCL265 against Gram-Negative Pathogens” (Antibiotics, 2022).

Legend:
P. aeruginosa PAO1 = test: MIC, broth micro-dilution; assay type: cell-based, Pseudomonas aeruginosa; conditions: Pseudomonas aeruginosa, read-out: MIC, Single Drug
Method: (§1) A variety of Gram-negative reference strains (E. coli ATCC 25922, E. coli ATCC 10763, P. aeruginosa PAO1, P. aeruginosa ATCC 27853, A. baumannii ATCC 12457, A. baumannii ATCC 19606, K. pneumoniae ATCC 4352 and K. pneumoniae ATCC 33495) were used for initial screening and combination testing with PMB. The organisms were speciated using biochemical testing and MALDI-TOF mass spectrometry (Bruker, Preston, VIC, Australia). Activity testing of NCL259 and NCL265 was also carried out on 51 extraintestinal clinical E. coli isolates from companion animals, and 83 porcine and bovine enterotoxigenic E. coli (ETEC) isolates from the Australian Centre for Antimicrobial Resistance Ecology collection. E. coli wild-type (BW 25113) and its mutant BW 25113∆AcrB, in which the inner membrane component AcrB of the tripartite multidrug efflux system AcrA/AcrB/TolC has been deleted, were obtained from the bacterial collection held at Health and Biomedical Innovation, Clinical and Health Sciences, The University of South Australia. All isolates were cultured on sheep blood agar (SBA) plates at 37 °C for 18 h before being subcultured into Luria Bertaini (LB) (Oxoid, Scoresby, VIC, Australia) broth and grown to A600nm = 0.5 (equivalent to approx. 1.5 × 10^8 colony-forming units (CFU)/mL).
(§2) MICs for NCL259 and NCL265 (serial two-fold dilutions commencing at 256 µg/mL) were determined (in duplicate) in round bottom 96–well microtitre trays (Sarstedt 82.1582.001), using the broth micro-dilution method recommended by the Clinical and Laboratory Standards Institute (CLSI). We have shown previously that robenidine can chelate calcium ions from cation-adjusted Mueller-Hinton broth, which causes the loss of activity of robenidine. Therefore, LB broth was used in this study. Additionally, considering the low solubility of robenidine and its analogues in aqueous solutions, two-fold serial dilutions of stock solutions of these compounds were prepared in 100% DMSO [21]. The MIC for ampicillin against each isolate was determined for each test to serve as an internal quality control. The MICs of isolates were determined by visual reading and using an EnSpire Multimode Plate Reader 2300 at A600nm.

P. aeruginosa ATCC 27853 = test: MIC, broth micro-dilution; assay type: cell-based, Pseudomonas aeruginosa; conditions: Pseudomonas aeruginosa, ATCC27853, read-out: MIC, Single Drug
Method: as §1, §2

[1] = system: Gram-negative reference strains; test: Checkerboard with PMB over the reference strains; assay type: cell-based; conditions: sub-inhibitory PMB
Method: MICs of NCL259 or NCL265 in the presence of the efflux pump inhibitor, PAβN were determined using a checkerboard assay. […] Briefly, a two-fold serial dilution of each antimicrobial solution was prepared in its appropriate solvent (e.g., DMSO for robenidine analogues and Milli-Q water for PAβN), and 1 μL of each dilution was added from wells 12 to 3 (12.8–0.25 μg/mL for robenidine analogues, and 32–2 μg/mL for PAβN). Thereafter, 89 μL of LB broth was added to each well followed by the addition of 10 μL of bacterial suspension (1–5 × 10^6 CFU/mL) to each well. In this manner, the final concentration of DMSO in each well was 1%. The plate was subsequently incubated at 37 °C for 24 h. The resazurin assay was used for assessment of drug susceptibility of NCL259 and NCL265 (Supplementary Table S1–S6). The same method was also used to test the MICs of NCL259 or NCL265 in the presence of PMB against a range of Gram-negative reference strains (E. coli ATCC 25922, E. coli ATCC 10763, P. aeruginosa PAO1, P. aeruginosa ATCC 27853, A. baumannii ATCC 12457, A. baumannii ATCC 19606, K. pneumoniae ATCC 4352 and K. pneumoniae ATCC 33495). […] The interaction of two antibiotics was calculated as the fractional inhibitory concentration index (FICI) using the following formula:(1) FICI=MICA in combination/MICA alone+MICB in combination/MICB alone where A is NCL259 or NCL265 and B is PAβN or PMB. […]

[2] = system: Wild-type (E. coli BW 25113); test: MIC, efflux-pump wild-type; assay type: cell-based; conditions: Escherichia coli, read-out: MIC Values
Method: as §1
as §2, with “Additionally, considering the low solubility of robenidine and its analogues in aqueous solutions, two-fold serial dilutions of stock solutions of these compounds were prepared in 100% DMSO [21].” left out

[3] = system: E. coli-type strains ATCC 11229 and ATCC 25922; parameters: method as in PMID 30318716, PMID 31312589; conditions: E. coli ATCC 11229 and ATCC 25922; cited from earlier work
[4] = system: Gram-negative human and animal isolates, including human KAPE pathogens; test: MIC range over all isolates; assay type: cell-based; conditions: variety of Gram-negative human and animal isolates (discussion)
Method: A variety of Gram-negative reference strains (E. coli ATCC 25922, E. coli ATCC 10763, P. aeruginosa PAO1, P. aeruginosa ATCC 27853, A. baumannii ATCC 12457, A. baumannii ATCC 19606, K. pneumoniae ATCC 4352 and K. pneumoniae ATCC 33495) were used for initial screening and combination testing with PMB. The organisms were speciated using biochemical testing and MALDI-TOF mass spectrometry (Bruker, Preston, VIC, Australia). Activity testing of NCL259 and NCL265 was also carried out on 51 extraintestinal clinical E. coli isolates from companion animals, and 83 porcine and bovine enterotoxigenic E. coli (ETEC) isolates from the Australian Centre for Antimicrobial Resistance Ecology collection. […]
MICs for NCL259 and NCL265 (serial two-fold dilutions commencing at 256 µg/mL) were determined (in duplicate) in round bottom 96–well microtitre trays (Sarstedt 82.1582.001), using the broth micro-dilution method recommended by the Clinical and Laboratory Standards Institute (CLSI). […] The MIC for ampicillin against each isolate was determined for each test to serve as an internal quality control. The MICs of isolates were determined by visual reading and using an EnSpire Multimode Plate Reader 2300 at A600nm.

SMILES | MIC (P. aeruginosa PAO1) [µg/mL] | MIC (P. aeruginosa ATCC 27853) [µg/mL] | reduction of MIC in combination with PMB [1] | MIC [2] [µg/mL] | MBC [3] [µg/mL] | MIC [3] [µg/mL] | MIC range [4] [µg/mL]
[H]/N=C(\N)NN=C(CC1CCCCC1)c1ccc(Cl)cc1 [NCL259, (E)-2-(1-(4-chlorophenyl)-2-cyclohexylethylidene)hydrazine-1-carboximidamide] | 64 | 64 | 8- to 256 fold | 64 | 8 to 16 | 8 to 16 | 
[H]/N=C(\N)NN=C(CCCCCC)c1ccc(Cl)cc1 [NCL265, (E)-2-(1-(4-chlorophenyl)heptylidene)hydrazine-1-carboximidamide] | 64 | 32 | 4- to 256 fold | 16 | 8 to 16 | 8 to 16 | 2 to 32
